Experiments:
Assay type in all cases: in vivo, human
[1] = Skin colour observation during lutein supplementation; conditions: each subject; after several weeks of administration, 30 mg lutein per day
[2] = Serum lutein by HPLC during oral lutein ester supplementation; conditions: subjects three, equivalent of 30 mg lutein per day as lutein esters in canola oil, within the first week
Experimental: Serum lutein and zeaxanthin was measured by conventional HPLC.
Two healthy adult males (of age/weight 42 year/60 kg and 51 years/61 kg) ingested the equivalent of 30 mg of lutein per day in the form of lutein esters (source: marigold flowers) suspended in 2 ml of canola oil. This was continued over a period of 138 days and then the dose of lutein was discontinued. Chemical analysis has shown that the product contains approximately 97% lutein—and 3% zeaxanthin. Fasting serum lutein/zeaxanthin levels of both individuals were determined by conventional HPLC on the morning of the first dose as a measure of base line. Blood samples were drawn at 2-3 hour intervals throughout the first day for both subjects and then daily for the next three days. Following the first week of supplementation, blood samples were drawn weekly. Blood was collected into a standard Vacutainer serum separator tube containing no anticoagulant. After allowing about 30 min for coagulation, the sample was centrifuged for 10 minutes and the serum removed by pipette. Serum samples were stored at −20° C. prior to analysis. […] 20 μl of an internal standard, monohexyl lutein ether, containing about 90 ng, was added to the solution at this point for quantification of the caratenoids by HPLC. […]

macular pigment [3] = test: Macular pigment optical density by heterochromatic flicker photometry during lutein supplementation
Experimental: A trial was conducted to determine if dietary supplementation with lutein and zeaxanthin effectively can change the pigment levels in the macula. The optical density of the macula pigment was measured for each subject using the method of flicker photometry (Bone and Sparrock 1971; Bone et al 1992). The concentration of pigment in the macula is proportioned to its optical density and the actual amount of pigment was assumed to be proportional to concentration. Thus, optical density was taken as a measure of the total amount of pigment.
Two healthy adult males (of age/weight 42 year/60 kg and 51 years/61 kg) ingested the equivalent of 30 mg of lutein per day in the form of lutein esters (source: marigold flowers) suspended in 2 ml of canola oil. This was continued over a period of 138 days and then the dose of lutein was discontinued. Chemical analysis has shown that the product contains approximately 97% lutein—and 3% zeaxanthin. Fasting serum lutein/zeaxanthin levels of both individuals were determined by conventional HPLC on the morning of the first dose as a measure of base line. Blood samples were drawn at 2-3 hour intervals throughout the first day for both subjects and then daily for the next three days. Following the first week of supplementation, blood samples were drawn weekly. Blood was collected into a standard Vacutainer serum separator tube containing no anticoagulant. After allowing about 30 min for coagulation, the sample was centrifuged for 10 minutes and the serum removed by pipette. Serum samples were stored at −20° C. prior to analysis. Carotenoids ware extracted from the serum by a minor modification of widely used methods (Guiliano et al, 1993; Handelmann et al, 1992), 200 μl aliquots of serum were diluted with 2 mL of 50% ethanol/water to ensure precipitation of protein components. 20 μl of an internal standard, monohexyl lutein ether, containing about 90 ng, was added to the solution at this point for quantification of the caratenoids by HPLC. This solution was extracted 3 times with 2 mL portions of hexane by vortexing the sample for 1 min followed by centrifuging for 5 minutes and pipetting off the hexane layer. The three portions of hexane were dried under a stream of nitrogen gas and stared under nitrogen at −20° C. until analysis was completed.
The optical density of the macular pigment was measured for each subject using the method of heterochomatic flicker photometry (Bone and Sparrock, 1971; Bone et al, 1992). The concentration of pigment in the macula is proportional to its optical density and the actual amount of pigment was assumed to be proportional to concentration. Thus optical density was taken to be a measure of the total amount of pigment.
In the flicker method, a small visual stimulus is presented to the eye which alternates in wavelength between 460 nm, the peak absorbance wavelength of the macular pigment, and 540 nm where pigment absorbance is zero (Bone et al., 1992). Above a certain frequency, color fusion occurs but the stimulus continues to flicker. At a higher frequency, a critical condition can be reached where flicker can be eliminated only if the two wavelength components are matched in luminance. If the stimulus is viewed peripherally, so that the image falls outside the macula, neither wavelength is attenuated by the macular pigment. However, if the stimulus is viewed centrally, the intensity of the 460 nm light must be increased to compensate for absorption by the macular pigment in order to achieve a luminance match. Thus it is possible to determine the optical density of a subject's macular pigment at the peak wavelength, or indeed any other wavelength.
The apparatus consisted of a two-channel Maxwellian view system based on a single light source, a 75 W xenon arc lamp. The wavelengths of the two channels were determined by 460 nm and 540 nm interference filters respectively, having half-widths of 7 and 9 nm. […]

macular pigment [4] = test: as above; conditions: 30 mg/day lutein ester, increased from 0.3

CC1=C[C@H](O)CC(C)(C)[C@H]1/C=C/C(C)=C/C=C/C(C)=C/C=C/C=C(C)/C=C/C=C(C)/C=C/C1=C(C)C[C@@H](O)CC1(C)C [lutein]
skin colour of the palms of the hands [1]: turned a noticeable yellow colour | increase in serum lutein concentration (factor) [2]: about 10 times | day until which optical density continued to rise before plateau (macular pigment [3]; subject four, both eyes, dose discontinued at day 138): 200 days | slope of macular pigment optical density (linear least squares fit) (macular pigment [3]; subject four, left eye, day -7 to day 83 of lutein supplementation): 3.1×10^−3 absorbance units per week | macular pigment optical density, final average (macular pigment [3]; subject four, left eye, initial mean 0.76, p<0.001): 0.79 | slope of macular pigment optical density (linear least squares fit) (macular pigment [3]; subject four, right eye, day -7 to day 83 of lutein supplementation): 2.3×10^−3 absorbance units per week | macular pigment optical density, final average (macular pigment [3]; subject four, right eye, initial mean 0.66, p<0.001): 0.70 | macular pigment optical density, final average (macular pigment [3]; subject three, left eye, average of 15 measurements over 18 days at end of experiment, initial values 0.57 and 0.58, p<0.0005): 0.70 | slope of macular pigment optical density (linear least squares fit) (macular pigment [3]; subject three, left eye, day -7 to day 72 of lutein supplementation): 15.3×10^−3 absorbance units per week | macular pigment optical density, final average (macular pigment [3]; subject three, right eye, average of 15 measurements over 18 days at end of experiment, initial values 0.57 and 0.58, p<0.0005): 0.67 | day until which optical density continued to rise before plateau (macular pigment [3]; subject three, dose of lutein discontinued at day 138): ~180 days

lutein ester
macular pigment optical density (macular pigment [4]; subject one, both eyes, after 75 days, then plateau): 0.5 | macular pigment optical density (macular pigment [4]; subject two, left eye only): 0.5
